Data as given in patent US11491245B2, “Gadolinium chelate compounds for use in magnetic resonance imaging” (BAYER PHARMA AKTIENGESELLSCHAFT, priority 2015, dated 2022).
Entries after “also recorded” stand apart in the source; their conditions may differ.

Tests used:
[1] = Pharmacokinetic parameters in rats (blood plasma kinetic); type: in vivo, male rats (Han-Wistar)
Method: Pharmacokinetic parameters of the compound of Example 3 were determined in male rats (Han-Wistar, 220-230 g, n=3). The compound was administered as a sterile aqueous solution (52.5 mmol Gd/L) as a bolus in the tail vein of the animals. The dose was 0.1 mmol Gd/kg. Blood was sampled 1, 3, 5, 10, 15, 30, 60, 90, 120, 240, 360, 480 and 1440 min post injection and the Gd concentration was determined by Inductively Coupled Plasma Mass Spectroscopy (ICP-MS Agilent 7500a, Waldbronn, Germany). The blood level was converted to plasma concentrations by division by 0.625 (plasma fraction of rat blood, assuming strictly extracellular distribution). As a control, 3 animals were treated in the same way with Gadovist®, a low molecular weight contrast agent.
The fit of the obtained data to a three compartment model (Phoenix—WinNonlin) yielded the pharmacokinetic parameters which are shown in Table 3.

[2] = Whole body imaging (dynamic MRI and tissue Gd concentration); type: in vivo, male New Zealand white rabbits; conditions: rabbits
Method: The study was performed with a clinical whole body MRI equipped with body spine coil, abdomen flex coil, neck coil (1.5 T Magnetom Avanto, Siemens Healthcare, Erlangen, Germany). The study was done using male New Zealand white rabbits (weight 2.3-3.0 kg, n=8, Charles River Kisslegg). All animals were initially anesthetized using a body weight-adjusted intramuscular injection of a mixture (1+2) of xylazine hydrochloride (20 mg/mL, Rompun 2%, Bayer Vital GmbH, Leverkusen, Germany) and ketamine hydrochloride (100 mg/mL, Ketavet, Pfizer, Pharmacia GmbH, Berlin, Germany) using 1 mL/kg body weight. The continuous anesthesia of the intubated animals (endotracheal tube, Rueschelit Super Safe Clear, cuff 3.0 mm, Willy Ruesch AG, Kernen, Germany) was achieved by the intravenous injection of 0.9 mg propofol per kilogram per hour (10 mg/mL, Propofol-Lipuro 1%, B. Braun Melsungen AG, Melsungen, Germany). The continuous intravenous injection was performed using a MR infusion system (Continuum MR Infusion System, Medrad Europe B. V., A E Beek, Germany). The tracheal respiration (SV 900C, Maquet, Rastatt, Germany) was performed with 55% oxygen, forty breaths per minute and a breathing volume of 7 mL per kilogram body weight per minute.
Dynamic MRI measurements up to 22 min post injection with subsequent quantitative signal analysis (Siemens Mean Curve software (SYNGO Task Card, Siemens Healthcare, Erlangen, Germany), were performed for three different regions head and neck (brain, tongue, chops muscle, neck muscle), abdomen (spleen, liver, blood) and pelvis (extremity muscle). For the three different slice groups a 3D T1-weighted Vibe sequence was used (TR=4.74 ms, TE=2.38, flip=10°, 1:29 min). The dynamic measurements of the three slice groups (Head/Neck: 1:29 min, Abdomen: 0:49 min, Pelvis: 1:16 min) were done up to 22 min post injection: 1. Head/Neck: baseline, 1.4, 5.2, 8.9, 12.8, 16.5, 20.4 min, 2. Abdomen: baseline, 0.5, 4.3, 8.1, 11.9, 15.7, 19.5 min and 3. Pelvis: baseline, 2.9, 6.7, 10.5, 14.4, 18.1, 22.0 min. At 30 min post injection the animals were sacrificed and the Gd concentrations were measured using Inductively Coupled Plasma Mass Spectroscopy (ICP-MS Agilent 7500a, Waldbronn, Germany) in the following tissue samples: blood, brain, tongue, liver and extremity muscle. A quantitative image evaluation was performed for the 30 min time point p.i. due to the combination of the quantitative ICP-MS Gadolinium concentrations and the MRI region-of-interest analysis.

[3] = Gadolinium release after the addition of zinc and phosphate (transmetallation); conditions: phosphate buffer pH 7.00, 2.5 mmol/L gadolinium complex, 2.5 mmol/L ZnCl2, 37° C., up to 72 h, FIG. 2
Method: The technique is based on measurement of the evolution of the water proton paramagnetic longitudinal relaxation rate in phosphate buffer (pH 7.00, 26 mmol/L, KH2PO4 Merck, Hessen, Germany) containing 2.5 mmol/L gadolinium complex and 2.5 mmol/L ZnCl2 Sigma-Aldrich, Munich, Germany). […] The mixture was vigorously stirred, and 300 μL were taken out for the relaxometric study at 0 min, 60 min, 120 min, 3 h, 4 h, 5 h, 24 h, 48 h and 72 h. The measurements were performed on a MiniSpec mq60 spectrometer (Bruker Analytik, Karlsruhe, Germany) at 60 MHz and 37° C.

[4] = male rats, 0.1 mmol Gd/kg bolus tail vein, mean
[5] = male rats, 0.1 mmol Gd/kg bolus tail vein, three compartment model, mean

SMILES: CC(C(=O)NCC(=O)NCC(CNC(=O)CNC(=O)C(C)N1CCN(CC(=O)[O-])CCN(CC(=O)[O-])CCN(CC(=O)[O-])CC1)(CNC(=O)CNC(=O)C(C)N1CCN(CC(=O)[O-])CCN(CC(=O)[O-])CCN(CC(=O)[O-])CC1)CNC(=O)CNC(=O)C(C)N1CCN(CC(=O)[O-])CCN(CC(=O)[O-])CCN(CC(=O)[O-])CC1)N1CCN(CC(=O)[O-])CCN(CC(=O)[O-])CCN(CC(=O)[O-])CC1.[Gd+3].[Gd+3].[Gd+3].[Gd+3] (centres unmarked) [Example 3, Tetragadolinium [4,10-bis(carboxylatomethyl)-7-{3,6,12,15-tetraoxo-16-[4,7,10-tris-(carboxylatomethyl)-1,4,7,10-tetraazacyclododecan-1-yl]-9,9-bis({[({2-[4,7,10-tris-(carboxylatomethyl)-1,4,7,10-tetraazacyclododecan-1-yl]propanoyl}amino)acetyl]-amino}methyl)-4,7,11,14-tetraazaheptadecan-2-yl}-1,4,7,10-tetraazacyclododecan-1-yl]acetate]
- AUC∞ Area under the curve (to infinity) [1, 4]: 9040 µmol·min/L
- MRT Mean residence time [1, 4]: 24.1 min
- V1 + V2 Volume, compartments V1 + V2 [1, 4]: 0.26 L/kg
- V2 Volume, compartment V2 [1, 4]: 0.15 L/kg
- Vc (V1) Volume, central compartment V1 [1, 4]: 0.11 L/kg
- Vd,ss Volume of distribution at steady state [1, 4]: 0.28 L/kg
- t½ α Half-life, compartment V1 [1, 5]: 1.7 min
- t½ β Half-life, compartment V2 [1, 5]: 18.2 min
- t½ γ Half-life, compartment V3 [1, 5]: 133 min
- pharmacokinetic profile (blood plasma kinetic) ([1]; rats, versus Gadovist®, FIG. 1): comparable to that of Gadovist®
- slope of the linear regression between tissue gadolinium concentration and MRI signal change ([2]; tissues 30 min p.i., FIGS. 8A and 8B): 1.9
- time course of contrast enhancements / signal changes ([2]; various tissues, up to 22 min post injection, vs Reference compound 1, FIG. 7): No differences in the time course of signal changes were observed; also recorded: no differences in the time course of contrast enhancements were observed
- contrast enhancement (amplitude) ([2]; various tissues, vs Reference compound 1, FIG. 7): higher compared to that of Reference compound 1
- stability against transmetallation (relative longitudinal relaxation rate R1p(t)/R1p(0) versus time) [3]: comparable to the high stability macrocyclic Reference compound 1 (Gadovist®); also recorded: comparable to the high stability of Reference compound 1 (Gadovist®)
